In patent US8426447B2, “Spiro-tricyclic ring compounds as beta-secretase modulators and methods of use” (Amgen Inc., priority 2008, dated 2013):
One block for each molecule: values may come before it.

Columns and labels:
[1] = molecular target: T1, BACE1 (Homo sapiens, UniProt P56817); assay: In Vitro Enzymatic BACE FRET (Fluorescence Resonance Energy Transfer) Assay; format: biochemical
Procedure, shortened: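 Cleavage of a 50 nM internally quenched peptide substrate is followed by fluorescence after a one-hour reaction in acidic acetate buffer, pH 4.2, terminated by Tris.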

[2] = molecular target: T1, BACE1; assay: In Vitro BACE Cell-based Assay (HEK cell assay): Aβ40 in conditioned medium of cells stably expressing Amyloid Precursor Protein, sandwich ELISA
Procedure, shortened: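 Conditioned medium Aβ40 by ELISA: pAb40 capture 3 h 4° C., biotin-6E10 detection 2 h 4° C., Streptavidin-Europium TRF. IC50 fitted from % control.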

[3] = in vitro BACE FRET enzyme assay, IC50 class symbols, read-out: BACE1 FRET assay
[4] = HEK cell-based assay, Aβ40 in conditioned medium, IC50 class symbols, read-out: HEK cell assay
[5] = Table III, IC50's in uM ranges, read-out: BACE1 FRET assay
[6] = Table III, IC50's in uM ranges, read-out: HEK cell assay
[7] = Table IV, class symbols, read-out: BACE1 FRET assay
[8] = Table IV, class symbols, read-out: HEK cell assay
[9] = HEK cells, read-out: HEK cell assay

T1 sequence (P56817 46-501, species assumed): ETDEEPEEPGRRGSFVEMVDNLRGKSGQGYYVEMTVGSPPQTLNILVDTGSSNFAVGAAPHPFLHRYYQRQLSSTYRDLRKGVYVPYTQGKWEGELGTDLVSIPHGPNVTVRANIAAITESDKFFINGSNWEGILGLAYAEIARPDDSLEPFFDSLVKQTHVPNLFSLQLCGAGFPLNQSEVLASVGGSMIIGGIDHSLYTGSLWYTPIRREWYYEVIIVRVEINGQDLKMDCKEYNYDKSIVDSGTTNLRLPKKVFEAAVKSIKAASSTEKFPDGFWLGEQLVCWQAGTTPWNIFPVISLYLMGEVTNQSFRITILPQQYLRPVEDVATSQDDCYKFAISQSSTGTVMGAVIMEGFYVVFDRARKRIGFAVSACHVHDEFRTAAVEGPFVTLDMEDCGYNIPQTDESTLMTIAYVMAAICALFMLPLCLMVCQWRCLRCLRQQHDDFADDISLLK

Compound: CC(C)(C)OCCOc1ccc2c(c1)[C@]1(COC(N)=N1)c1cc(-c3cncnc3)ccc1O2 [compound 158]
- IC50 [1, 5]: < 0.1 µM
- IC50 [2, 6]: < 0.1 µM

Compound: CC(C)(O)COc1ccc2c(c1)[C@]1(COC(N)=N1)c1cc(-c3ccccc3)ccc1O2 [compound 221]
- IC50 [1, 5]: < 0.1 µM
- IC50 [2, 6]: 0.1 to 1 µM

Compound: CC(C)(O)Cc1ccc2c(c1)[C@]1(COC(N)=N1)c1cc(-c3cccnc3)ccc1O2 [compound 659]
- IC50 [1, 7]: 0.1 to 1 µM
- IC50 [2, 8]: 0.1 to 1 µM

Compound: CC(C)(C)COc1ccc2c(c1)[C@]1(COC(N)=N1)c1cc(N3CCCC3)ccc1O2 [compound 815]
- IC50 [1, 7]: 0.1 to 1 µM
- IC50 [2, 8]: 1 to 5 µM

Compound: CC(C)(C)C#Cc1ccc2c(c1)[C@@]1(COC(N)=N1)c1cc(C#CC(C)(C)C)cnc1O2 [compound 897]
- IC50 [1, 7]: < 0.1 µM
- IC50 [2, 8]: 0.1 to 1 µM

Compound: CC(C)(C)OC(=O)N1CC=C(c2ccc3c(c2)[C@]2(COC(N)=N2)c2cc(-c4cncnc4)ccc2O3)CC1 [compound 968]
- IC50 ([1]; read-out: BACE1 FRET assay): < 0.1 µM
- IC50 ([2]; read-out: HEK cell assay): 0.1 to 1 µM

Compound: COC(C)(C)C#Cc1ccc2c(c1)[C@]1(COC(N)=N1)c1cc(-c3cccnc3)ccc1O2 [compound 201]
- IC50 [1, 5]: < 0.1 µM
- IC50 [2, 6]: < 0.1 µM

Compound: CCOC(=O)c1ccc(-c2ccc3c(c2)[C@]2(COC(N)=N2)c2cc(-c4cccnc4)ccc2O3)o1 [compound 725]
- IC50 ([1]; read-out: BACE1 FRET assay): < 0.1 µM
- IC50 ([2]; read-out: HEK cell assay): 0.1 to 1 µM

Compound: NC1=N[C@@]2(CO1)c1cc(-c3cccnc3F)ccc1Oc1ccc(Cl)nc12 [compound 392]
- IC50 [1, 3]: 0.1 to 1 µM
- IC50 [2, 4]: 0.1 to 1 µM

Compound: NC1=N[C@]2(CO1)c1ccccc1Oc1ccc(-c3cccc4ncccc34)cc12 [compound 627]
- IC50 [1, 7]: > 5 µM
- IC50 [2, 8]: > 5 µM

Compound: COc1ccc2c(c1)[C@]1(N=C(N)O[C@H]1C)c1cc(-c3cncnc3)ccc1O2 (single isomer, unassigned) [Example 125a]
- IC50 [1, 5]: > 5 µM
- IC50 [2, 6]: > 5 µM

Compound: NC1=N[C@@]2(CO1)c1cc(-c3cccnc3)ccc1Oc1cnc(C3=CCOCC3)cc12 [compound 849]
- IC50 [1, 7]: < 0.1 µM
- IC50 [2, 8]: < 0.1 µM

Compound: NC1=N[C@@]2(CO1)c1cc(-c3cc(Cl)ccc3F)ccc1Oc1cnc(-c3ccncc3)cc12 [compound 330]
- IC50 [1, 3]: < 0.1 µM
- IC50 [2, 4]: < 0.1 µM

Compound: CC(C)(O)COc1ccc2c(c1)[C@]1(COC(N)=N1)c1cc(-c3cncc(F)c3)ccc1O2 [compound 224]
- IC50 [1, 5]: < 0.1 µM
- IC50 [2, 6]: < 0.1 µM

Compound: NC1=N[C@@]2(CO1)c1cc(-c3cccnc3F)ccc1Oc1cnc(Cl)cc12 [compound 551]
- IC50 [1, 7]: 0.1 to 1 µM
- IC50 [2, 8]: 0.1 to 1 µM

Compound: NC1=N[C@@]2(CO1)c1cc(-c3cccnc3F)ccc1Oc1cnc(-c3ccccn3)cc12 [compound 516]
- IC50 ([1]; BACE1 FRET assay (uM)): < 0.1 µM
- IC50 ([2]; HEK cell assay (uM), HEK cells): < 0.1 µM

Next, values leading:

- IC50 [1, 3]: < 0.1 µM
- IC50 [2, 4]: 0.1 to 1 µM
Compound: COCC(=O)Nc1ccc2c(c1)[C@@]1(COC(N)=N1)c1cc(OCC(C)(C)C)ccc1O2 [compound 375]

- IC50 ([1]; read-out: BACE1 FRET assay): < 0.1 µM
- IC50 ([2]; read-out: HEK cell assay): < 0.1 µM
Compound: NC1=N[C@@]2(CO1)c1cc(-c3cccnc3)ccc1Oc1cnc(/C=C/C3CC3)cc12 [compound 728]

- IC50 [1, 7]: 0.1 to 1 µM
- IC50 [2, 8]: 0.1 to 1 µM
Compound: Cc1ccc(-n2ccc3c(c2=O)[C@@]2(COC(N)=N2)c2cc(-c4cccnc4)ccc2O3)cc1 [compound 566]

- IC50 ([1]; read-out: BACE1 FRET assay): 1 to 5 µM
- IC50 [2, 9]: 1 to 5 µM
Compound: N#Cc1ccc(-n2ccc3c(c2=O)[C@@]2(COC(N)=N2)c2cc(-c4cccnc4)ccc2O3)cc1 [compound 523]

- IC50 ([1]; read-out: BACE1 FRET assay): < 0.1 µM
- IC50 ([2]; read-out: HEK cell assay): < 0.1 µM
Compound: NC1=N[C@]2(CO1)c1cc(C#CC3(O)CCC3)ccc1Oc1ccc(-c3cccnc3)cc12 [compound 942]

- IC50 [1, 7]: 1 to 5 µM
- IC50 [2, 8]: > 5 µM
Compound: COc1cc(F)c2c(c1)[C@]1(COC(N)=N1)c1cc(-c3cncnc3)cnc1O2 [compound 584]

- IC50 [1, 7]: < 0.1 µM
- IC50 [2, 8]: 0.1 to 1 µM
Compound: CC(C)(C)COc1ccc2c(c1)[C@]1(COC(N)=N1)c1cc(-c3cnc(Cl)nc3)ccc1O2 [compound 881]

- IC50 ([1]; read-out: BACE1 FRET assay): < 0.1 µM
- IC50 [2, 9]: < 0.1 µM
Compound: NC1=N[C@@]2(CO1)c1cc(-c3cccnc3)ccc1Oc1cnc(N3CCC4(CC3)OCCO4)cc12 [compound 443]

- IC50 [1, 7]: < 0.1 µM
- IC50 [2, 8]: 0.1 to 1 µM
Compound: CC(C)(C)COc1ccc2c(c1)[C@]1(COC(N)=N1)c1cc(-c3ccc(Cl)nc3)ccc1O2 [compound 887]

- IC50 [1, 3]: < 0.1 µM
- IC50 [2, 4]: < 0.1 µM
Compound: NC1=N[C@@]2(CO1)c1cc(-c3cccnc3)ccc1Oc1c(F)cc(OCC(=O)C3CC3)cc12 [compound 387]

- IC50 [1, 5]: < 0.1 µM
- IC50 [2, 6]: < 0.1 µM
Compound: NC1=N[C@]2(CO1)c1cc(CCCCO)ccc1Oc1ccc(-c3cccnc3)cc12 [compound 194]
